Results reported in patent US20100272648A1, “Methods of Identifying Improved NMDA Receptor Antagonists” (priority 2008, published 2010).
Read-outs that look alike come from different tables or passages of the source.

Legend:
dyskinesias = conditions: add-on therapy with L-DOPA, patients; cited from earlier work
[1] = biological target: rat NMDA-NR2B containing receptors (Rattus norvegicus, UniProt P35439+Q00960); assay: pH potency boost, Xenopus oocyte assay, rat receptor cDNA; type: cell-based; conditions: pH 6.9 vs 7.6, rat receptors
Sequence of rat NMDA-NR2B containing receptors (Q00960 27-1482, other chains not shown): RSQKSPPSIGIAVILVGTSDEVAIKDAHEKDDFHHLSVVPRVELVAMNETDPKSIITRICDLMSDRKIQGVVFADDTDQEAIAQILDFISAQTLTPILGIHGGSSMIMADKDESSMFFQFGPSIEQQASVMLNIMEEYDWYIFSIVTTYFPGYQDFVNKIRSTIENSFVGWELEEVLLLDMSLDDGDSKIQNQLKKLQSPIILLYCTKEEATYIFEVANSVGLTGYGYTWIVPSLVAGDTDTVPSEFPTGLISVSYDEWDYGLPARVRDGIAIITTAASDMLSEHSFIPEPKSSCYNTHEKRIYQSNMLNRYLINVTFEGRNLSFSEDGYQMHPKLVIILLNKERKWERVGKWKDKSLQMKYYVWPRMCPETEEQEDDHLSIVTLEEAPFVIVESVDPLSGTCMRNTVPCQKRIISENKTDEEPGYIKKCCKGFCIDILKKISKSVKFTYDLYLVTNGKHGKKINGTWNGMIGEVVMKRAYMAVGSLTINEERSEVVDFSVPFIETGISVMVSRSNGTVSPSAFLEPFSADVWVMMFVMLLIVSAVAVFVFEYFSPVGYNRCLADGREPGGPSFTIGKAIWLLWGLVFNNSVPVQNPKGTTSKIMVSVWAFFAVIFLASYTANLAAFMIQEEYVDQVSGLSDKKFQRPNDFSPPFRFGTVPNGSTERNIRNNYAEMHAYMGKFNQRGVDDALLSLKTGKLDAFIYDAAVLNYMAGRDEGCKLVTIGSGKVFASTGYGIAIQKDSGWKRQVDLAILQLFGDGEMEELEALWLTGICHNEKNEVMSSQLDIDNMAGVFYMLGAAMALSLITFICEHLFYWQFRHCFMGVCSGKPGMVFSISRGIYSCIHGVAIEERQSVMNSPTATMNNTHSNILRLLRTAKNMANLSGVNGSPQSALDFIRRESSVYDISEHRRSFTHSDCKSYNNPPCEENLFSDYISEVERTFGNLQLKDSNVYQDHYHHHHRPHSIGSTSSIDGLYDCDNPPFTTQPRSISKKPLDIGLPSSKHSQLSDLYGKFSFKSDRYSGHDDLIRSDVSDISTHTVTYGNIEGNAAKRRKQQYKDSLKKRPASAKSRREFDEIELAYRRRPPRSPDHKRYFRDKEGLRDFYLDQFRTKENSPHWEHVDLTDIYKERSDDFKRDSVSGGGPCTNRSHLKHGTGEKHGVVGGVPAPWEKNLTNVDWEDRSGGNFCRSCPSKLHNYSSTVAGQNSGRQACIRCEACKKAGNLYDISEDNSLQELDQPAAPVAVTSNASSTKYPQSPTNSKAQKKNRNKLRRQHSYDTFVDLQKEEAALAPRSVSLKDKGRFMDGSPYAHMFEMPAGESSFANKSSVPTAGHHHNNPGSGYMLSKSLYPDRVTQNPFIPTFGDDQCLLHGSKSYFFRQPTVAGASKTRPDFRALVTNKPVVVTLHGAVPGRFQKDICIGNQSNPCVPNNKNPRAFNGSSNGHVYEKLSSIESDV
Text: (§1) In vitro transcribed cRNA was purified using standard methods.
(§2) Preparation of pH-dependent NMDA receptor antagonists for testing.
(§3) Voltage-clamp recordings from Xenopus oocytes.
(§4) Determination of a pH dependent potency boost in antagonism, defined as the […].

[2] = biological target: human NMDA-NR2B containing receptors (Homo sapiens, UniProt Q05586+Q13224); assay: pH potency boost, Xenopus oocyte assay, human receptor cDNA; type: cell-based; conditions: for HUMAN Boost: pH potency boost, pH 6.9 vs 7.6, human receptors; for Absolute Boost Difference: rat versus human pH potency boost
Sequence of human NMDA-NR2B containing receptors (Q13224 27-1484, other chains not shown): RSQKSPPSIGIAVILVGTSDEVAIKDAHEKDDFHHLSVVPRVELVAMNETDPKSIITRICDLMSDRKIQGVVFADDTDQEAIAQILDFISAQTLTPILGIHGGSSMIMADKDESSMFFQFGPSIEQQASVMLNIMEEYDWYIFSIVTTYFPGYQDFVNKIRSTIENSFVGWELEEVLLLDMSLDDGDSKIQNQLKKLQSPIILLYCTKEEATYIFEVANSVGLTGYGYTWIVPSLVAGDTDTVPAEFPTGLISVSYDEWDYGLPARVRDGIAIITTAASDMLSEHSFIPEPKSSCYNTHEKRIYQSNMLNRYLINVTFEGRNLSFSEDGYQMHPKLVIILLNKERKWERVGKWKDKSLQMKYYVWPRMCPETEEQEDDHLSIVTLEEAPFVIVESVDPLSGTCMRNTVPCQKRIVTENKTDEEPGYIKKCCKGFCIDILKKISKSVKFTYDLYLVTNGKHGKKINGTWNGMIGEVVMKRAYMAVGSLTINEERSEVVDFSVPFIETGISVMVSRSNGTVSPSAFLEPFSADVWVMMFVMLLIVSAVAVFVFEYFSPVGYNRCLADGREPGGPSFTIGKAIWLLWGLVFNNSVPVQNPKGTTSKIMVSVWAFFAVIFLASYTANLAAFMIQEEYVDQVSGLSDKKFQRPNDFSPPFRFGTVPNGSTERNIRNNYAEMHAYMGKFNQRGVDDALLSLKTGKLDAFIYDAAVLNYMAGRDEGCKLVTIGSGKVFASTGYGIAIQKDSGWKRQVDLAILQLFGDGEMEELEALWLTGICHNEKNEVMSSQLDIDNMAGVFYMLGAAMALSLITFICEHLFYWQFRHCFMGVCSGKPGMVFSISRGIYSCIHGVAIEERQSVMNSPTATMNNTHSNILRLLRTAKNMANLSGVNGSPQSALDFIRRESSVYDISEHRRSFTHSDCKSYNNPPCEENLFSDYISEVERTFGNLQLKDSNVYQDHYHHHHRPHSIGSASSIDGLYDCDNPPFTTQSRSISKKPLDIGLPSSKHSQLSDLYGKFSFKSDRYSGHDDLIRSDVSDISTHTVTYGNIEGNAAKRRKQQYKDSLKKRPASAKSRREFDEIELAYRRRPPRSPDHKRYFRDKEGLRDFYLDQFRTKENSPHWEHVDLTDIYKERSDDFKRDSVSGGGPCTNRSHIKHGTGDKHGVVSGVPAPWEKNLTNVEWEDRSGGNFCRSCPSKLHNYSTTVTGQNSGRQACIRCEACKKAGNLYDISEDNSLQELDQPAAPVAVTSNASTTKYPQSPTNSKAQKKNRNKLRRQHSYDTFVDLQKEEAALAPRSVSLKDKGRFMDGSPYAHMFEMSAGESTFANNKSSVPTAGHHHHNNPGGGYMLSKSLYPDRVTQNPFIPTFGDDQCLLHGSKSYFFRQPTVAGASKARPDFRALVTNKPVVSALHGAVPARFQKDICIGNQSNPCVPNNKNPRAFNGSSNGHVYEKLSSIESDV
Text: as §1, §2, §3, §4

infarct volume [3] = conditions: rats, after middle cerebral artery occlusion; cited from earlier work
infarct volume [4] = conditions: cats, highest dose tested; cited from earlier work
infarct volume [5] = conditions: cats and rats, highest dose tested; cited from earlier work
NR1/NR2A receptors = NR1/NR2A receptors (Rattus norvegicus, UniProt P35439+Q00959); assay: In vitro potency boost pH 6.9 vs 7.6 (NR1/NR2A, oocytes) versus infarct volume (FIG. 4); conditions: potency boost pH 6.9 vs 7.6 versus infarct volume
Sequence of NR1/NR2A receptors (Q00959 23-1464, other chains not shown): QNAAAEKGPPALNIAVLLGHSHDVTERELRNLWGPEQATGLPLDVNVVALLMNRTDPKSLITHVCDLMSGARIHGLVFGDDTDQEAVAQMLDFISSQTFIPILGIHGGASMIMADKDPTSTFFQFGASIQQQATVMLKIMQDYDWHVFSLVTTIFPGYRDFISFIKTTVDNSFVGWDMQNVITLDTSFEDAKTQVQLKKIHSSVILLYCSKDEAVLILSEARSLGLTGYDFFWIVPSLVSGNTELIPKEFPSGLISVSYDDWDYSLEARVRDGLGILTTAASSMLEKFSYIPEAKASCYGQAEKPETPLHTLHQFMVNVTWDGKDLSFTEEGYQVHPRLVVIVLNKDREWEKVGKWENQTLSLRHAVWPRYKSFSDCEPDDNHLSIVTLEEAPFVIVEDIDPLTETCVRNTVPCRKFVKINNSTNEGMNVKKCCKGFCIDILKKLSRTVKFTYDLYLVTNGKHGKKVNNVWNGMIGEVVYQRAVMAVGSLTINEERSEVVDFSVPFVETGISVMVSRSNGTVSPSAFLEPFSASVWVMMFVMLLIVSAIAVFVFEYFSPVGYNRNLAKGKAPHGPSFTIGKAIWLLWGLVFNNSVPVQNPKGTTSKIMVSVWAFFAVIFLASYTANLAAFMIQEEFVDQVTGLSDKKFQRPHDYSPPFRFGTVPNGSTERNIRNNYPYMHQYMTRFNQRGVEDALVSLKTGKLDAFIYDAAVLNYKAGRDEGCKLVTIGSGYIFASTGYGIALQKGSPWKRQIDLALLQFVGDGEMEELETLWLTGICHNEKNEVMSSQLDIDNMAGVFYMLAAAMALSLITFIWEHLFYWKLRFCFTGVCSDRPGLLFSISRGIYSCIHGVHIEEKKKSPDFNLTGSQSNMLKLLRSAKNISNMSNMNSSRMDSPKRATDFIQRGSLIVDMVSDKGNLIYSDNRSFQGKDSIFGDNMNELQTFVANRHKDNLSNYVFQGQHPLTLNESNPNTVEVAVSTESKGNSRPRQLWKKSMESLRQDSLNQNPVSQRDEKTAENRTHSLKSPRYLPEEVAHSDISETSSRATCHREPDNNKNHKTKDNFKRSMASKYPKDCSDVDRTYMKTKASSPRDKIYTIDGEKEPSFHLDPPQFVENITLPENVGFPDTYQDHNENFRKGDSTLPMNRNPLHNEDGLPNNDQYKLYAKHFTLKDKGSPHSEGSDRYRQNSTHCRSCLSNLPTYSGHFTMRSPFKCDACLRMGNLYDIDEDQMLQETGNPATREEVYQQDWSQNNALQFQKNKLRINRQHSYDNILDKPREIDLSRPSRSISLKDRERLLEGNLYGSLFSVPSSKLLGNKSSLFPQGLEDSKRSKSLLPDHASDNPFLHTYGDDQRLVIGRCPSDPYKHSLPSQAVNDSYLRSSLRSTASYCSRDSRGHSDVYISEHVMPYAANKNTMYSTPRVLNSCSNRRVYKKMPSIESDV
Experimental: Expression of NMDA receptors in Xenopus oocytes. cRNA was synthesized from linearized template cDNA for NMDA receptor subunits (NR1-1a, NR2B, NR2A) according to manufacturer specifications (Ambion:). cDNAs used corresponded to GenBank numbers U08261 and U11418 (NR1-1a), AF001423 and CD13211 (NR2A), U11419 (NR2B). Briefly, cDNA was linearized with an appropriate restriction enzyme downstream of the coding region, purified, and incubated with RNA polymerase and appropriate concentrations of ribonucleotides. In vitro transcribed cRNA was purified using standard methods. Quality of synthesized cRNA was assessed by gel electrophoresis, and quantity was estimated by spectroscopy and gel electrophoresis. Stage V and VI oocytes were surgically removed from the ovaries of large, well-fed and healthy Xenopus laevis anesthetized with 3-amino-benzoic acid ethyl ester (1 gm/l). Clusters of oocytes were incubated with 292 Uml Worthington (Freehold, N.J.) type IV collagenase or 1.3 mg/ml collagenase (Life Technologies, Gaithersburg, Md.; 17018-029) for 2 hr in Ca2+-free solution comprised of (in mM) 115 NaCl, 2.5 KCl, and 10 HEPES, pH 7.5, with slow agitation to remove the follicular cell layer. […]

[6] = Locomotor activity of rats (light beam breaks); type: in vivo, Sprague-Dawley rats; conditions: IP, varying doses (3-300 mg/kg, compound-specific), monitored 2 hours after injection
Experimental: Locomotor activity was monitored after injection for 2 hours.

Compound	RAT Boost [1]	HUMAN Boost [2]	Absolute Boost Difference [2]	also measured
NC12CC3CC(CC(C3)C1)C2 [Amantadine]	–	–	–	reduction of severity of dyskinesias (dyskinesias): 60%
CS(=O)(=O)Nc1ccc(OCC(O)CN(CCc2ccc(Cl)c(Cl)c2)Cc2ccccc2)cc1 (stereo not drawn) [Compound 93-30]	7.4	21.0	13.6	–
CCCCN(CCc1ccc(Cl)c(Cl)c1)CC(O)COc1ccc(NS(C)(=O)=O)cc1 (stereo not drawn) [Compound 93-88]	6.3	22.1	15.8	–
CS(=O)(=O)Nc1ccc(OCC(O)CN2CCN(c3ccc(F)c(F)c3)CC2)cc1 (stereo not drawn) [Compound 93-108]	3.4	17.7	14.3	–
C/C=C/CN(CCc1ccc(Cl)c(Cl)c1)CC(O)COc1ccc(NS(C)(=O)=O)cc1 (stereo not drawn) [Compound 93-128]	4.1	18.0	13.9	–
CS(=O)(=O)Nc1ccc(OCC2CN(CCc3cc(Cl)c(Cl)s3)C(c3c(F)c(F)c(F)c(F)c3F)O2)cc1 (stereo not drawn) [Compound 93-176]	34.5	29.9	4.6	–
CC(C(O)c1ccc(O)cc1)N1CCC(Cc2ccccc2)CC1 (stereo not drawn) [Ifenprodil]	–	–	–	decrease in infarct volume (infarct volume [3]): 22%; decrease in infarct volume (infarct volume [4]): 42%
OC(CN1CCC(Cc2ccc(F)cc2)CC1)c1ccc(Cl)cc1 (stereo not drawn) [SL 82.0715]	–	–	–	decrease in infarct volume (infarct volume [5]): 36-48%
CNC1(c2ccccc2Cl)CCCCC1=O (stereo not drawn) [ketamine]	–	–	–	mean within shaded area (criteria for superior drug performance), NR1/NR2A (NR1/NR2A receptors): fall within the shaded area
(+)MK801	–	–	–	effects on locomotor activity [6]: stereotypical biphasic effects
